Measurements as given in PubChem BioAssay AID1963984 (Molecular Pharmacology Branch, DTP, NCI, 2024).
pIC50: −log10 of the molar value.

Test system: 233499-124-R-J3-PDC spheroids with HUVEC/MSC, viability
Experiment: Anticancer human tumor 233499-124-R-J3-PDC patient-derived colon adenocarcinoma cell line growth inhibition [PI3K]
Settings: for pIC50: curve of first compound; for viability, T/C: stronger effect = lower value
Outline: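 Multi-cell spheroids combine tumor cells with HUVEC and human MSCs, treated with targeted agents alone or with inavolisib, alpelisib, duvelisib or copanlisib. Concentrations fall in half-log steps from at or near clinical Cmax, or from 10 microM where Cmax is unknown; viability read-out.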
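Also: spheroids exposed to agents for seven days before readout.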
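For viability, T/C in this document: percent viability relative to DMSO vehicle control taken as 100%.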

For `CNC(=O)c1ccc(N2C(=S)N(c3ccc(C#N)c(C(F)(F)F)c3)C(=O)C2(C)C)cc1F` + COc1c(OCCCN2CCOCC2)ccc2c3n(c(=NC(=O)c4cnc(N)nc4)nc12)CCN3, the pIC50 (second compound 0.00316 µM) was less than 5.00, the pIC50 (second compound 0.01 µM) was less than 5.00 and the pIC50 (second compound 0.0316 µM) was less than 5.00. For the same compound, the pIC50 (second compound 0.1 µM) was 5.39, the pIC50 (second compound 0.316 µM) was greater than 7.50 and the pIC50 (second compound 1 µM) was greater than 7.50. The viability, T/C (second compound 0.00316 µM, first compound 0.0316 µM) was 93.8%, the viability, T/C (second compound 0.00316 µM, first compound 0.1 µM) was 97.3% and the viability, T/C (second compound 0.00316 µM, first compound 0.316 µM) was 97.2%. It also gave a viability, T/C (second compound 0.00316 µM, first compound 1 µM) of 81.9%, a viability, T/C (second compound 0.00316 µM, first compound 3.16 µM) of 65.7% and a viability, T/C (second compound 0.00316 µM, first compound 10 µM) of 54.3%. The viability, T/C (second compound 0.01 µM, first compound 0.0316 µM) was 88.1%, the viability, T/C (second compound 0.01 µM, first compound 0.1 µM) was 105% and the viability, T/C (second compound 0.01 µM, first compound 0.316 µM) was 99%. It also gave a viability, T/C (second compound 0.01 µM, first compound 1 µM) of 87.7%, a viability, T/C (second compound 0.01 µM, first compound 3.16 µM) of 89.9% and a viability, T/C (second compound 0.01 µM, first compound 10 µM) of 60.1%. For the same compound, the viability, T/C (second compound 0.0316 µM, first compound 0.0316 µM) was 101%, the viability, T/C (second compound 0.0316 µM, first compound 0.1 µM) was 85.3% and the viability, T/C (second compound 0.0316 µM, first compound 0.316 µM) was 98.3%. The viability, T/C (second compound 0.0316 µM, first compound 1 µM) was 78.1%, the viability, T/C (second compound 0.0316 µM, first compound 3.16 µM) was 63.8% and the viability, T/C (second compound 0.0316 µM, first compound 10 µM) was 50.4%. It also gave a viability, T/C (second compound 0.1 µM, first compound 0.0316 µM) of 84%, a viability, T/C (second compound 0.1 µM, first compound 0.1 µM) of 53.8% and a viability, T/C (second compound 0.1 µM, first compound 0.316 µM) of 75.2%. It also gave a viability, T/C (second compound 0.1 µM, first compound 1 µM) of 64.2%, a viability, T/C (second compound 0.1 µM, first compound 3.16 µM) of 47.4% and a viability, T/C (second compound 0.1 µM, first compound 10 µM) of 44%. For the same compound, the viability, T/C (second compound 0.316 µM, first compound 0.0316 µM) was 33%, the viability, T/C (second compound 0.316 µM, first compound 0.1 µM) was 30.5% and the viability, T/C (second compound 0.316 µM, first compound 0.316 µM) was 44.1%. The viability, T/C (second compound 0.316 µM, first compound 1 µM) was 32.3%, the viability, T/C (second compound 0.316 µM, first compound 3.16 µM) was 30.7% and the viability, T/C (second compound 0.316 µM, first compound 10 µM) was 12.1%. For the same compound, the viability, T/C (second compound 1 µM, first compound 0.0316 µM) was 10%, the viability, T/C (second compound 1 µM, first compound 0.1 µM) was 24.7% and the viability, T/C (second compound 1 µM, first compound 0.316 µM) was 6.89%. It also gave a viability, T/C (second compound 1 µM, first compound 1 µM) of 5.24%, a viability, T/C (second compound 1 µM, first compound 3.16 µM) of 10.3% and a viability, T/C (second compound 1 µM, first compound 10 µM) of 4.27%.

Compound `Cn1cnc2c(F)c(Nc3ccc(Br)cc3Cl)c(C(=O)NOCCO)cc21` + COc1c(OCCCN2CCOCC2)ccc2c3n(c(=NC(=O)c4cnc(N)nc4)nc12)CCN3 has a pIC50 (second compound 0.00316 µM) of 6.42, a pIC50 (second compound 0.01 µM) of 6.12 and a pIC50 (second compound 0.0316 µM) of 6.88. The pIC50 (second compound 0.1 µM) was 7.27, the pIC50 (second compound 0.316 µM) was greater than 8.02 and the pIC50 (second compound 1 µM) was greater than 8.02. For the same compound, the viability, T/C (second compound 0.00316 µM, first compound 0.00949 µM) was 55.7%, the viability, T/C (second compound 0.00316 µM, first compound 0.03 µM) was 73.5% and the viability, T/C (second compound 0.00316 µM, first compound 0.0949 µM) was 76.5%. It also gave a viability, T/C (second compound 0.00316 µM, first compound 0.3 µM) of 54.9%, a viability, T/C (second compound 0.00316 µM, first compound 0.949 µM) of 31.2% and a viability, T/C (second compound 0.00316 µM, first compound 3 µM) of 29.5%. The viability, T/C (second compound 0.01 µM, first compound 0.00949 µM) was 75.2%, the viability, T/C (second compound 0.01 µM, first compound 0.03 µM) was 80.8% and the viability, T/C (second compound 0.01 µM, first compound 0.0949 µM) was 75.5%. For the same compound, the viability, T/C (second compound 0.01 µM, first compound 0.3 µM) was 56%, the viability, T/C (second compound 0.01 µM, first compound 0.949 µM) was 50.3% and the viability, T/C (second compound 0.01 µM, first compound 3 µM) was 24.6%. For the same compound, the viability, T/C (second compound 0.0316 µM, first compound 0.00949 µM) was 68.3%, the viability, T/C (second compound 0.0316 µM, first compound 0.03 µM) was 78.9% and the viability, T/C (second compound 0.0316 µM, first compound 0.0949 µM) was 54.1%. For the same compound, the viability, T/C (second compound 0.0316 µM, first compound 0.3 µM) was 34.2%, the viability, T/C (second compound 0.0316 µM, first compound 0.949 µM) was 30.4% and the viability, T/C (second compound 0.0316 µM, first compound 3 µM) was 20.1%. The viability, T/C (second compound 0.1 µM, first compound 0.00949 µM) was 71.5%, the viability, T/C (second compound 0.1 µM, first compound 0.03 µM) was 67.5% and the viability, T/C (second compound 0.1 µM, first compound 0.0949 µM) was 33.1%. The viability, T/C (second compound 0.1 µM, first compound 0.3 µM) was 28.2%, the viability, T/C (second compound 0.1 µM, first compound 0.949 µM) was 19.1% and the viability, T/C (second compound 0.1 µM, first compound 3 µM) was 17.9%. The viability, T/C (second compound 0.316 µM, first compound 0.00949 µM) was 41.3%, the viability, T/C (second compound 0.316 µM, first compound 0.03 µM) was 34.2% and the viability, T/C (second compound 0.316 µM, first compound 0.0949 µM) was 13.1%. The viability, T/C (second compound 0.316 µM, first compound 0.3 µM) was 10.2%, the viability, T/C (second compound 0.316 µM, first compound 0.949 µM) was 5.14% and the viability, T/C (second compound 0.316 µM, first compound 3 µM) was 6.9%. The viability, T/C (second compound 1 µM, first compound 0.00949 µM) was 2.93%, the viability, T/C (second compound 1 µM, first compound 0.03 µM) was 7.86% and the viability, T/C (second compound 1 µM, first compound 0.0949 µM) was 4.9%. The viability, T/C (second compound 1 µM, first compound 0.3 µM) was 0.96%, the viability, T/C (second compound 1 µM, first compound 0.949 µM) was 1.18% and the viability, T/C (second compound 1 µM, first compound 3 µM) was 1.01%.
